Where a name gives a salt, the structure may show the parent alone.
system: mice; test: Phenylquinone-induced writhing test on mice (analgesia); type: in vivo, male NMRI mice; details: Mus musculus, iv, read-out: ED50 (writhing test on mice)
Description: Testing for analgesia using the writhing test on mice
Testing for analgesic effectiveness was performed using the phenylquinone-induced writhing test on mice, modified according to I. C. Hendershot, J. Forsaith, J. Pharmacol. Exp. Ther. 125, 237-240 (1959). Male NMRI mice with a weight of 25-30 g were used for this purpose. For each dose of substance, groups of 10 animals received, 10 minutes after the intravenous administration of a compound according to the invention, 0.3 ml per mouse of an 0.02% aqueous solution of phenylquinone (phenylbenzoquinone: manufactured by Sigma, Deisenhofen; solution prepared with the addition of 5% ethanol and kept on a water bath at 45° C.) administered intraperitoneally. The animals were placed individually in observation cages. The number of pain-induced stretching movements (so-called writhing reactions=straightening of the body with stretching of the rear extremities) 5-20 minutes after the administration of phenylquinone was counted by means of a push-button counter.
The ED50 values of the writhing reaction were calculated by means of regression analysis (evaluation program supplied by Martens EDV Service, Eckental) from the dose-dependent decrease in the writhing reactions, by comparison with groups of animals which were tested in parallel and to which no compounds according to the invention were administered.

SMILES | ED50 [mg/kg]
COc1cccc([C@@]2(O)CCCC[C@@H]2CN(C)C)c1.Cl (racemic) [tramadol, (1RS,2RS)-2-dimethylaminomethyl-1-(3-methoxy-phenyl)-cyclohexanol hydrochloride, reference compound] | 3.68

same assay, conditions: Mus musculus; mice; intravenous, 10 minutes before phenylquinone (0.3 ml of 0.02% solution i.p.); writhing reactions counted 5-20 minutes after phenylquinone; read-out: ED50 (writhing test on mice)

SMILES | ED50 [mg/kg]
C/C=C(\c1cccc(O)c1)C(C)CN(C)C.Cl (racemic) [Example 2, (Z)-(RS)-3-[1-(2-dimethylamino-1-methyl-ethyl)-propenyl]-phenol hydrochloride] | 1.37
C/C=C(\c1cccc(OC(=O)c2ccccc2OC(C)=O)c1)C(C)CN(C)C (racemic) [Example 4, (Z)-(RS)-2-acetoxy-benzoic acid-3-[1-2-dimethylamino-1-methyl-ethyl)-propenyl]-phenyl ester hydrochloride] | 1.64
C/C=C(\c1ccc2cc(O)ccc2c1)C(C)CN(C)C.Cl (racemic) [Example 12, (Z)-(RS)-6-[1-(2-dimethylamino-1-methyl-ethyl)-propenyl]-naphth-2-ol hydrochloride] | 0.97
CC/C=C(\c1cccc(O)c1)C(C)CN(C)C.Cl (racemic) [Example 15, (Z)-(RS)-3-[1-(2-dimethylamino-1-methyl-ethyl)-but-1-enyl]-phenol hydrochloride] | 1.33
CC(C)=C(c1cccc(O)c1)C(C)CN(C)C.Cl (racemic) [Example 18, (RS)-3-[1-(2-dimethylamino-1-methyl-ethyl)-2-methyl-propenyl]-phenol hydrochloride] | 2.07
Cc1cc2c(C3=CCCCC3CN(C)C)cccc2s1.Cl (racemic) [Example 24, (RS)-dimethyl-[2-(2-methyl-benzo[b]thiophen-4-yl]-cyclohex-2-enylmethyl]-amine hydrochloride] | 1.35
C/C=C(\c1cccc(O)c1)[C@H](C)CN(C)C [3 (+)-enantiomer] | 2.25
C/C=C(\c1cccc(O)c1)[C@@H](C)CN(C)C [3 (-)-enantiomer] | 0.98
CN(C)C[C@H]1CCC=C1c1ccc(C(F)(F)F)cc1 [20 (+)-enantiomer] | 1.4
CN(C)C[C@@H]1CCC=C1c1ccc(C(F)(F)F)cc1 [20 (-)-enantiomer] | 2.12
C[C@@H]1C=C(c2cccc(O)c2)[C@H](CN(C)C)CC1 [25 (-)-enantiomer] | 0.9
CN(C)C[C@@H]1CCCC=C1c1cccc(O)c1 [26 (-)-enantiomer] | 1.04
CN(C)C[C@H]1CCCC=C1c1cccc(O)c1 [27 (+)-enantiomer] | 1.6
